According to patent publication US5308606A, “Method of treating and/or diagnosing soft tissue tumors” (priority 1991, dated 1994):
Several values for one entry are separate records, joined by “and”; a condition that tells them apart may be missing. Equal values may be shown once. Read-outs that look alike come from different tables or passages of the source. Each block holds one compound with its values, some of them ahead of it.

Assays:
bone [1] = assay: Bone uptake, scored from images of miniature pigs by 3 investigators; conditions: average score (0-3) of 3 investigators; head 72 hr, text 24 hour images; one value per pig
Description: (§1) Studies to determine the qualitative biodistribution of the various radionuclides were conducted by injecting the compositions into miniature pigs having melanotic lesions, which occur spontaneously. ^67 Ga-citrate was used as the control and was given by the same route of administration as the test samples.
(§2) Each injected solution was from 0.5-1 mL having 1-2 mCi of ^153 Sm present.
(§3) Images of each pig (right lateral, left lateral and dorsal) were taken at 4, 24, 48 and 72 hours. The 24 hour images were evaluated independently by 3 investigators using the following scheme for the uptake of ^153 Sm in various tissues:
1=Slight uptake (negligible)
2=Moderate uptake (intermediate)
(§4) The tissues evaluated were bone, liver and tumor.

[2] = in vivo; cited from earlier work
liver [3] = assay: Liver uptake, scored from images of miniature pigs by 3 investigators
Description: as §1, §2, §3
1=Slight uptake (negligible)
2=Moderate uptake (intermediate)
as §4

non-target tissues = conditions: in vivo; cited from earlier work
[4] = Whole body retention in miniature pigs having naturally occurring melanomic lesions
Description: as §1
Each injected solution was from 0.5-1 mL having 1-2 mCi of ^153 Sm present. Each pig had whole body counts immediately after injection and again at 24, 48 and 72 hours.
as §3

tumor = assay: Tumor uptake, scored from images of miniature pigs having melanomic lesions by 3 investigators; conditions: for Tumor Uptake (Location): average score (0-3) of 3 investigators
Description: as §1, §2, §3
1=Slight uptake (negligible)
2=Moderate uptake (intermediate)
as §4

liver [5] = conditions: pig, in vivo
Description: as §1, §2, §3
1=Slight uptake (negligible)
2=Moderate uptake (intermediate)
as §4

bone [6] = conditions: pig, in vivo
Description: as §1, §2, §3
1=Slight uptake (negligible)
2=Moderate uptake (intermediate)
as §4

[7] = in vivo; cited from earlier work; remark: listed apart in the source
liver [8] = conditions: in vivo; cited from earlier work
Ehrlich tumors = conditions: animals bearing Ehrlich tumors; cited from earlier work

Bone Uptake (72 hr) (bone [1]): 1.00
Liver Uptake (72 hrs) (liver [3]; average score (0-3) of 3 investigators, head 72 hrs, text 24 hour images, one value per pig): 3.00
liver uptake (liver [3]; miniature pigs, in words): unacceptably large liver uptake
clearance of the extra-cellular fluid ([4]; in words): never cleared the extra-cellular fluid
Tumor Uptake (Location) (tumor; Draining node): 1.67
Tumor Uptake (Location) (tumor; Left head): 3.00
Tumor Uptake (Location) (tumor; Left sacrum): 0.00
Tumor Uptake (Location) (tumor; Right head): 0.33
Tumor Uptake (Location) (tumor; Right stifle): 2.00
Tumor Uptake (Location) (tumor; Right thorax): 3.00
Compound: O=C([O-])CC(O)(CC(=O)[O-])C(=O)[O-].[67Ga+3] [B]
rate of blood clearance [2]: slow
uptake in non-target tissues (non-target tissues): high uptake
% Whole Body Retention (72 hrs.) ([4]; 72 hrs, L/M ratio 20 (A), 257 (1), one value per pig): 98.5 % of injected dose and 96.7 % of injected dose and 97.1 % of injected dose
tumor image (tumor; miniature pigs, relative to background radiation): almost indistinguishable from the high background radiation

Liver Uptake (72 hrs) (liver [5]): 1.00
Bone Uptake (72 hr) (bone [6]): 3.00
Compound: CC(=O)Nc1cc(CN(CC(=O)O)CC(=O)O)c(O)c(CN(CC(=O)O)CC(=O)O)c1.[153Sm+3] [Example 1]

Compound: O=C([O-])CN(CCN(CC(=O)[O-])CC(=O)[O-])CCN(CC(=O)[O-])CC(=O)[O-].[99Tc+4] [^99m Tc-DTPA]
elimination of the radionuclide [7]: eliminated from the body by the kidneys into the urine
tissue localization of the radionuclide [7]: does not result in the radionuclide localizing in any tissue

Compound: [Cl][153Sm]([Cl])[Cl] [^153 Sm-chloride]
liver uptake (liver [8]): high liver uptake

Compound: ^99m Tc-ethylenediaminediacetic acid
imaging of tumors (Ehrlich tumors): could be used to image tumors

Compound: ^153 Sm-citrate
liver uptake (liver [8]): high liver uptake
